Consider 22 compounds from patent US20250236608A1, “EGFR INHIBITORS” (Blueprint Medicines Corporation, priority 2022, published 2025).

For experiment [1], the target named is EGFR (d746-750) (Homo sapiens (Human), UniProt P00533, DEL746-750). As to the kind of experiment: Biochemical EGFR inhibition assay, EGFR (d746-750). The settings on record: Caliper mobility shift; 1.0 mM ATP or ATP Km; read-out: Enz EGFR_Exon19-del746-750 IC50.
Experiment [2] deals with pEGFR (Tyr1068) in PC-9 cells (Ex19Del) (Homo sapiens (Human), UniProt P00533, DEL746-750). Put plainly: PC-9 pEGFR AlphaLISA assay. The experiment is classed as cell-based. The note with it: 4 hours incubation, p-EGFR (Tyr1068) AlphaLISA, read-out: Ext pEGFR_PC-9 Ex19Del IC50. The method in brief: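 Cells seeded in phenol-free DMEM with 10% FBS adhered overnight at 37° C./5% CO2, then were exposed for 4 hours to a 4-fold, 10-point compound dilution series. After lysis, phospho-EGFR was read by AlphaLISA SureFire Ultra, and IC50 was fitted from percent inhibition versus log concentration.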
In general terms: In Alpha technology, singlet oxygen from a donor bead excites a nearby acceptor bead.

Experiment [3] has as its target EGFR L858R (Homo sapiens (Human), UniProt P00533, L858R). As to the kind of experiment: Biochemical EGFR inhibition assay, EGFR L858R. The note with it: Caliper mobility shift; 1.0 mM ATP or ATP Km; read-out: Enz EGFR_L858R IC50.

Chain of pEGFR (Tyr1068) in PC-9 cells (Ex19Del) (P00533 other isoform, or with tags, fused parts or gaps del 746-750): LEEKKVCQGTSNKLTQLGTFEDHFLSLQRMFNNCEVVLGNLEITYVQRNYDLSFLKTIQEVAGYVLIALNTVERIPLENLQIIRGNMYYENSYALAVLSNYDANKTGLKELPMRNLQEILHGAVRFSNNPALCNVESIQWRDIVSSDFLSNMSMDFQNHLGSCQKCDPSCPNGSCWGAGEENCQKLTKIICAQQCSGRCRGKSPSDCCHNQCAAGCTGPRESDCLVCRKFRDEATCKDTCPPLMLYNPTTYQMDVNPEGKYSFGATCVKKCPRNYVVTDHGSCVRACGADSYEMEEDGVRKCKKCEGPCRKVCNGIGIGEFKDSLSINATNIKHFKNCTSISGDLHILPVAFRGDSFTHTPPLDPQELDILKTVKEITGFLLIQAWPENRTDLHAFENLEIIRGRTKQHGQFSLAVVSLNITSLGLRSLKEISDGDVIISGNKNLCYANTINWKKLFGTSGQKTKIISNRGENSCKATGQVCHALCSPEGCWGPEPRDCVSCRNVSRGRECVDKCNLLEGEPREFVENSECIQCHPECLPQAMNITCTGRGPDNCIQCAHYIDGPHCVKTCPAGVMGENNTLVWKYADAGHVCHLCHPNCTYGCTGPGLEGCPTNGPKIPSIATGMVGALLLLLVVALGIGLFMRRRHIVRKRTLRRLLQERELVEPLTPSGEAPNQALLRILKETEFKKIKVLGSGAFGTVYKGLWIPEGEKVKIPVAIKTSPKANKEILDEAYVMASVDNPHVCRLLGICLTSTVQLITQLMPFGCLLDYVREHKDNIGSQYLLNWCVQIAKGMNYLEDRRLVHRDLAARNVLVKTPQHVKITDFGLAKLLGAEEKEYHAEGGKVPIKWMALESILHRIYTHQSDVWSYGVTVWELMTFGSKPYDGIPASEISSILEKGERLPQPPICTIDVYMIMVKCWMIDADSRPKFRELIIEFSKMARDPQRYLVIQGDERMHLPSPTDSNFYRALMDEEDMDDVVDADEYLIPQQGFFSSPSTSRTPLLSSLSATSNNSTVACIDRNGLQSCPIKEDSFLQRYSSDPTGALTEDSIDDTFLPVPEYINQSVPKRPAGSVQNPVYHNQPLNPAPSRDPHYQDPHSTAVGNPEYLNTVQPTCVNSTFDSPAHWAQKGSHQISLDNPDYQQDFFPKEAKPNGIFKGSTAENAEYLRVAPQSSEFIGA
Chain of EGFR L858R (P00533 25-1210 L858R): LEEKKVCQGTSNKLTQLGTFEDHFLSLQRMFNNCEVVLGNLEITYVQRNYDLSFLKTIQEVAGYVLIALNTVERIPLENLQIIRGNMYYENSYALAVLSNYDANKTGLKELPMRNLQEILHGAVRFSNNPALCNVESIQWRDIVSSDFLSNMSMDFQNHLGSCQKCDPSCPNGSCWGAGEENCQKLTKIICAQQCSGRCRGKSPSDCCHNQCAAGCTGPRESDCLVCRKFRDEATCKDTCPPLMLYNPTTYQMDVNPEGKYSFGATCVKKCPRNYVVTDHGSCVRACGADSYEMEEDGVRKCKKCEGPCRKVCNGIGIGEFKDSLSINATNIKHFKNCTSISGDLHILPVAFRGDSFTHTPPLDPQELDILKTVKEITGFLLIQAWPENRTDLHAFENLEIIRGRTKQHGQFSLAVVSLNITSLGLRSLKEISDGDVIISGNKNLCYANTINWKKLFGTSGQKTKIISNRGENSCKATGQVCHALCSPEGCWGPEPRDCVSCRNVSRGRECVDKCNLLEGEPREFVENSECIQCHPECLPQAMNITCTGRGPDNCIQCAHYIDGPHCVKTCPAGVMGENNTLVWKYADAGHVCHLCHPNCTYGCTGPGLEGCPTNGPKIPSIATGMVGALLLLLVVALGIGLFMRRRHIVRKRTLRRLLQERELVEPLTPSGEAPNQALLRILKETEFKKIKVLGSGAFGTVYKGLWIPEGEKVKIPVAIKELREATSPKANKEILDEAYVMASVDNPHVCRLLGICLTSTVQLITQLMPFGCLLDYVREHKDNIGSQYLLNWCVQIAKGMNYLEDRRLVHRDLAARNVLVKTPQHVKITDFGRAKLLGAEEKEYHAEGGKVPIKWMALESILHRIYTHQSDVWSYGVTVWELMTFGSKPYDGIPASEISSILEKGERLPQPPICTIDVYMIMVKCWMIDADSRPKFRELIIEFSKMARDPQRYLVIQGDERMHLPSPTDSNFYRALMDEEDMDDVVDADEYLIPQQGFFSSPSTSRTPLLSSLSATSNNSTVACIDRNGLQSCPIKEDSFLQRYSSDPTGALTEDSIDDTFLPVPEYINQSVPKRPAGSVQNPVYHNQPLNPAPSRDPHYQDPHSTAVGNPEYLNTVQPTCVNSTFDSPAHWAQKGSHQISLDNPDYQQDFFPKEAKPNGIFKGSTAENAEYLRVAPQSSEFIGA
Chain of EGFR (d746-750) (P00533 other isoform, or with tags, fused parts or gaps del 1-694/del 746-750 limits assumed): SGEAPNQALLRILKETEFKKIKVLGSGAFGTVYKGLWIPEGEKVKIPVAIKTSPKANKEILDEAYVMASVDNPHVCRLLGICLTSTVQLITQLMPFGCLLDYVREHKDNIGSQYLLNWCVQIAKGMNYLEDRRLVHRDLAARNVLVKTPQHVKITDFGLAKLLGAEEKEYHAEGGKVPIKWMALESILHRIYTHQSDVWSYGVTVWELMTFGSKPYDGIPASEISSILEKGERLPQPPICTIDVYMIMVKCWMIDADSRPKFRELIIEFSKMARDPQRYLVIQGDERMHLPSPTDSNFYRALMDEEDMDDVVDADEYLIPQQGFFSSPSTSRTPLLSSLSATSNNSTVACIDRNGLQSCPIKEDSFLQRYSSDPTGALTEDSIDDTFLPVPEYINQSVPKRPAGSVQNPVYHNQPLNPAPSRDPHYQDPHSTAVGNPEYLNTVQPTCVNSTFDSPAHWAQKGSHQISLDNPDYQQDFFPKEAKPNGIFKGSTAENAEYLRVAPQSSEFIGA

Consider `COc1cc2ncnc(-c3cn(C)nc3-c3ccccc3)c2nc1NC(=O)c1ccc(C2CC2)nc1` [Example 357, 6-cyclopropyl-N-(7-methoxy-4-(1-methyl-3-phenyl-1H-pyrazol-4-yl)pyrido[3,2-d]pyrimidin-6-yl)nicotinamide], for which the IC50 worked out at 1.1 nM in experiment [1], 4.4 nM in experiment [2] and 2.2 nM in experiment [3].
With `COc1cc2ncnc(-c3cn(CC(F)F)nc3-c3ccccc3)c2nc1NC(=O)c1ccc(C2CC2)nc1` [Example 358, 6-cyclopropyl-N-(4-(1-(2,2-difluoroethyl)-3-phenyl-1H-pyrazol-4-yl)-7-methoxypyrido[3,2-d]pyrimidin-6-yl)nicotinamide], the IC50 in experiment [1] was 1.1 nM; in experiment [2] it was 1 nM; in experiment [3], 1.8 nM.
Turning to `COc1cc2ncnc(-c3cn(C)nc3-c3ccccc3)c2nc1NC(=O)c1ccccc1F` [Example 359, 2-fluoro-N-(7-methoxy-4-(1-methyl-3-phenyl-1H-pyrazol-4-yl)pyrido[3,2-d]pyrimidin-6-yl)benzamide], the IC50 in experiment [1] was found to be 0.7 nM; in experiment [2], 1.6 nM; in experiment [3], 1.6 nM.
Turning to `COc1cc2ncnc(-c3cn(C)nc3-c3ccccc3)c2nc1NC(=O)c1cnn(C(F)(F)F)c1` [Example 360, N-(7-methoxy-4-(1-methyl-3-phenyl-1H-pyrazol-4-yl)pyrido[3,2-d]pyrimidin-6-yl)-1-(trifluoromethyl)-1H-pyrazole-4-carboxamide], the IC50 in experiment [1] was 1 nM; in experiment [2], 2.7 nM; in experiment [3], 1.8 nM.
Consider `COc1cc2ncnc(-c3cn(C)nc3-c3ccccc3)c2nc1NC(=O)C1(C(F)(F)F)CC1` [Example 361, N-(7-methoxy-4-(1-methyl-3-phenyl-1H-pyrazol-4-yl)pyrido[3,2-d]pyrimidin-6-yl)-1-(trifluoromethyl)cyclopropane-1-carboxamide], for which the IC50 was 0.9 nM in experiment [1], 1.2 nM in experiment [2] and 1.6 nM in experiment [3].
In the case of `COc1cc2ncnc(-c3cn(C)nc3-c3ccc(F)cc3)c2nc1NC(=O)C1(C(F)(F)F)CC1` [Example 362, N-(4-(3-(4-fluorophenyl)-1-methyl-1H-pyrazol-4-yl)-7-methoxypyrido[3,2-d]pyrimidin-6-yl)-1-(trifluoromethyl)cyclopropane-1-carboxamide], the IC50 in experiment [1] came to 0.5 nM; in experiment [2] it was 0.7 nM; in experiment [3], 1.1 nM.
Consider `COc1cc2ncnc(-c3cn(C)nc3-c3ccccc3)c2nc1NC(=O)[C@@]1(C)CCCO1` [Example 363, (R)-N-(7-methoxy-4-(1-methyl-3-phenyl-1H-pyrazol-4-yl)pyrido[3,2-d]pyrimidin-6-yl)-2-methyltetrahydrofuran-2-carboxamide], for which the IC50 in experiment [1] came to 1.7 nM; in experiment [2], 3.5 nM; in experiment [3], 5.4 nM.
In the case of `COc1cc2ncnc(-c3cn(C(F)F)nc3-c3ccccc3)c2nc1NC(=O)C12CC(C1)C2` [Example 364, N-(4-(1-(difluoromethyl)-3-phenyl-1H-pyrazol-4-yl)-7-methoxypyrido[3,2-d]pyrimidin-6-yl)bicyclo[1.1.1]pentane-1-carboxamide], the IC50 is 1 nM in experiment [1], 4 nM in experiment [2] and 2.1 nM in experiment [3].
In the same order, the values of `COc1cc2ncnc(-c3cn(C4CC4)nc3-c3ccccc3)c2nc1NC(=O)c1cnn(C(F)(F)F)c1` [Example 365, N-(4-(1-cyclopropyl-3-phenyl-1H-pyrazol-4-yl)-7-methoxypyrido[3,2-d]pyrimidin-6-y1)-1-(trifluoromethyl)-1H-pyrazole-4-carboxamide] are 0.9 nM, 2 nM and 1.8 nM.
With `COc1cc2ncnc(-c3cn(C)nc3-c3ccccc3F)c2nc1NC(=O)C1(C(F)F)CC1` [Example 366, 1-(difluoromethyl)-N-(4-(3-(2-fluorophenyl)-1-methyl-1H-pyrazol-4-y1)-7-methoxypyrido[3,2-d]pyrimidin-6-yl)cyclopropane-1-carboxamide], the half-maximal inhibitory concentration (IC50) in experiment [1] is 0.8 nM; in experiment [2], 1.4 nM; in experiment [3] it was 1.4 nM.
Turning to `COc1cc2ncnc(-c3cn(C4CC4)nc3-c3ccccc3)c2nc1NC(=O)C1(C(F)(F)F)CC1` [Example 367, N-(4-(1-cyclopropyl-3-phenyl-1H-pyrazol-4-yl)-7-methoxypyrido[3,2-d]pyrimidin-6-yl)-1-(trifluoromethyl)cyclopropane-1-carboxamide], the IC50 in experiment [1] is 0.9 nM; in experiment [2], 0.5 nM; in experiment [3], 1.6 nM.
`COc1cc2ncnc(-c3cn(C)nc3-c3ccccc3)c2nc1NC(=O)C12CCCN1CCC2` [Example 368, N-(7-methoxy-4-(1-methyl-3-phenyl-1H-pyrazol-4-yl)pyrido[3,2-d]pyrimidin-6-yl)tetrahydro-1H-pyrrolizine-7a(5H)-carboxamide]: the IC50 in experiment [1] came to 1.5 nM; in experiment [2], 4.6 nM; in experiment [3], 3.9 nM.
Turning to `COc1cc2ncnc(-c3cn(C)nc3-c3ccccc3)c2nc1NC(=O)C1(C(F)F)CC1` [Example 369, 1-(difluoromethyl)-N-(7-methoxy-4-(1-methyl-3-phenyl-1H-pyrazol-4-yl)pyrido[3,2-d]pyrimidin-6-yl)cyclopropane-1-carboxamide], the IC50 turned out to be 0.7 nM in experiment [1], 0.9 nM in experiment [2] and 1.3 nM in experiment [3].
For the compound `COc1cc2ncnc(-c3cn(CC(F)F)nc3-c3ccccc3)c2nc1NC(=O)C1(C(F)(F)F)CC1` [Example 370, N-(4-(1-(2,2-difluoroethyl)-3-phenyl-1H-pyrazol-4-yl)-7-methoxypyrido[3,2-d]pyrimidin-6-y1)-1-(trifluoromethyl)cyclopropane-1-carboxamide], the IC50 in experiment [1] came to 0.7 nM; in experiment [2], 0.4 nM; in experiment [3] it was 1.1 nM.
As for `CCn1cc(-c2ncnc3cc(OC)c(NC(=O)C4(C(F)(F)F)CC4)nc23)c(-c2ccccc2)n1` [Example 371, N-(4-(1-ethyl-3-phenyl-1H-pyrazol-4-yl)-7-methoxypyrido[3,2-d]pyrimidin-6-yl)-1-(trifluoromethyl)cyclopropane-1-carboxamide], the IC50 in experiment [1] is 0.9 nM; in experiment [2] it was 0.8 nM; in experiment [3], 1.4 nM.
Regarding `COc1cc2ncnc(-c3c[nH]nc3-c3ccccc3)c2nc1NC(=O)C1(C(F)(F)F)CC1` [Example 372, N-(7-methoxy-4-(3-phenyl-1H-pyrazol-4-yl)pyrido[3,2-d]pyrimidin-6-yl)-1-(trifluoromethyl)cyclopropane-1-carboxamide], the IC50 was found to be 0.7 nM in experiment [1], 1.5 nM in experiment [2] and 1.6 nM in experiment [3].
As for `COc1cc2ncnc(-c3cn(C)nc3-c3ccccc3F)c2nc1NC(=O)[C@@]12C[C@@H]1CN(C)C2` [Example 373, (1S,5S)—N-(4-(3-(2-fluorophenyl)-1-methyl-1H-pyrazol-4-yl)-7-methoxypyrido[3,2-d]pyrimidin-6-yl)-3-methyl-3-azabicyclo[3.1.0]hexane-1-carboxamide], the half-maximal inhibitory concentration (IC50) amounted to 0.8 nM in experiment [1], 2.3 nM in experiment [2] and 2.2 nM in experiment [3].
In the same order, the values of `COc1cc2ncnc(-c3cn(C)nc3-c3ccccc3F)c2nc1NC(=O)[C@]12C[C@H]1CN(C)C2` [Example 374, (1R,5R)—N-(4-(3-(2-fluorophenyl)-1-methyl-1H-pyrazol-4-yl)-7-methoxypyrido[3,2-d]pyrimidin-6-yl)-3-methyl-3-azabicyclo[3.1.0]hexane-1-carboxamide] are 1.4 nM, 3.6 nM and 4.3 nM.
As for `COc1cc2ncnc(-c3cn(C)nc3-c3ccccc3)c2nc1NC(=O)C1(C(F)(F)F)CCOCC1` [Example 383, N-(7-methoxy-4-(1-methyl-3-phenyl-1H-pyrazol-4-yl)pyrido[3,2-d]pyrimidin-6-yl)-4-(trifluoromethyl)tetrahydro-2H-pyran-4-carboxamide], the values for the IC50 in experiment [1], in experiment [2] and in experiment [3] were 1.7 nM, 5.7 nM and 4.5 nM, respectively.
For the compound `COc1cc2ncnc(-c3cn(C)nc3-c3ccccc3)c2nc1NC(=O)[C@H](C)N(C)C` [Example 390, (S)-2-(dimethylamino)-N-(7-methoxy-4-(1-methyl-3-phenyl-1H-pyrazol-4-yl)pyrido[3,2-d]pyrimidin-6-yl) propenamide], the IC50 in experiment [1] was determined as 3.9 nM; in experiment [2] it was 8.7 nM; in experiment [3], 9.3 nM.
Consider `COc1cc2ncnc(-c3cn(CC(F)F)nc3-c3ccccc3)c2nc1NC(=O)[C@H]1CCN1C` [Example 391, (R)—N-(4-(1-(2,2-difluoroethyl)-3-phenyl-1H-pyrazol-4-yl)-7-methoxypyrido[3,2-d]pyrimidin-6-yl)-1-methylazetidine-2-carboxamide], for which the IC50 in experiment [1] came to 1.3 nM; in experiment [2], 0.7 nM; in experiment [3], 2.5 nM.
Taken in the same sequence, the figures for `COc1cc2ncnc(-c3cn(C)nc3-c3ccc(F)cc3)c2nc1NC(=O)C12CC(N(C)C)(C1)C2` [Example 402, 3-(dimethylamino)-N-(4-(3-(4-fluorophenyl)-1-methyl-1H-pyrazol-4-yl)-7-methoxypyrido[3,2-d]pyrimidin-6-yl)bicyclo[1.1.1]pentane-1-carboxamide] were 1.3 nM, 3.8 nM and 3.1 nM.

The term IC50 denotes the point on the concentration scale where inhibition reaches its midpoint.
